Results as given in PubChem BioAssay (NCI).
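Grown in 96-well plates, cells were treated for 48 hours with each compound at five concentrations. Insufficient inhibition: endpoint recorded as highest concentration tested. TGI is the concentration that stops growth completely.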

What was measured:
Experiment in all cases: NCI anticancer screen, dose series, 48 h
[1] = test system: TK-10 renal
[2] = test system: HOP-18 NSCLC
[3] = test system: SK-MEL-28 melanoma
[4] = test system: SK-OV-3 ovarian
[5] = test system: OVCAR-8 ovarian
[6] = test system: COLO 205 colon
[7] = test system: UACC-62 melanoma
[8] = test system: LXFL 529 NSCLC
[9] = test system: DLD-1 colon
[10] = test system: HOP-62 NSCLC
[11] = test system: 786-0 renal
[12] = test system: KM20L2 colon
[13] = test system: SF-295 CNS
[14] = test system: HT29 colon
[15] = test system: HCT-15 colon
[16] = test system: SNB-19 CNS
[17] = test system: MOLT-4 leukemia
[18] = test system: NCI-H23 lung
[19] = test system: MALME-3M melanoma
[20] = test system: HL-60(TB) leukemia
[21] = test system: OVCAR-5 ovarian
[22] = test system: M14 melanoma
[23] = test system: RXF 393 renal
[24] = test system: UACC-257 melanoma
[25] = test system: LOX IMVI melanoma
[26] = test system: SK-MEL-5 melanoma
[27] = test system: HOP-92 NSCLC
[28] = test system: SR leukemia
[29] = test system: XF 498 CNS
[30] = test system: K-562 leukemia
[31] = test system: UO-31 renal
[32] = test system: HCT-116 colon
[33] = test system: SF-539 CNS
[34] = test system: SNB-75 CNS
[35] = test system: ACHN renal
[36] = test system: EKVX NSCLC
[37] = test system: DMS 114 small cell lung
[38] = test system: RPMI-8226 leukemia
[39] = test system: SW-620 colon
[40] = test system: A498 renal
[41] = test system: NCI-H460 lung
[42] = test system: OVCAR-3 ovarian
[43] = test system: SK-MEL-2 melanoma
[44] = test system: IGROV1 ovarian
[45] = test system: NCI-H522 lung
[46] = test system: SN12C renal
[47] = test system: NCI-H226 lung
[48] = test system: CCRF-CEM leukemia
[49] = test system: KM12 colon
[50] = test system: U251 CNS
[51] = test system: A549 NSCLC
[52] = test system: SF-268 CNS
[53] = test system: M19-MEL melanoma
[54] = test system: HCC-2998 colon
[55] = test system: SNB-78 CNS
[56] = test system: DMS 273 small cell lung

Cc1[nH]c2c(C)cccc2c1C1Cc2ccccc2N1 (stereo not given) was tested, and the TGI [1] was 62.2 µM, the TGI [2] was 35.2 µM and the TGI [3] was 36.7 µM. The TGI [4] was over 100 µM, the TGI [5] was 40.2 µM and the TGI [6] was 32.3 µM. It also gave a TGI [7] of 32.8 µM, a TGI [8] of 36.4 µM and a TGI [9] of 79.8 µM. For the same compound, the TGI [10] was 32.3 µM, the TGI [11] was 46.9 µM and the TGI [12] was 31.4 µM. The TGI [13] was 41 µM, the TGI [14] was 35.3 µM and the TGI [15] was 49.2 µM. For the same compound, the TGI [16] was 69.8 µM, the TGI [17] was 48.3 µM and the TGI [18] was 39.8 µM. It also gave a TGI [19] of 41.7 µM, a TGI [20] of 43 µM and a TGI [21] of 41.3 µM. The TGI [22] was 29.6 µM, the TGI [23] was 23.1 µM and the TGI [24] was 42.7 µM. The TGI [25] was 31 µM, the TGI [26] was 33.4 µM and the TGI [27] was 0.0966 µM. The TGI [28] was 66.7 µM, the TGI [29] was 38.4 µM and the TGI [30] was 67 µM. The TGI [31] was 65.7 µM, the TGI [32] was 30.9 µM and the TGI [33] was 33.7 µM. For the same compound, the TGI [34] was over 100 µM, the TGI [35] was 74.9 µM and the TGI [36] was 35.9 µM. The TGI [37] was 45.2 µM, the TGI [38] was 74.6 µM and the TGI [39] was 56.4 µM. The TGI [40] was 87.7 µM, the TGI [41] was 51.7 µM and the TGI [42] was 33 µM. For the same compound, the TGI [43] was 54.3 µM, the TGI [44] was 36.7 µM and the TGI [45] was 41.2 µM. For the same compound, the TGI [46] was 41 µM, the TGI [47] was 57.1 µM and the TGI [48] was 74.1 µM. The TGI [49] was 32.4 µM, the TGI [50] was 41.4 µM and the TGI [51] was 62.2 µM. For the same compound, the TGI [52] was 48.2 µM and the TGI [53] was 46.1 µM.

Work on CC1CC2=C(C(=O)O1)C(c1ccccc1)Nc1ccccc1N2 (stereo not given) yielded a TGI [54] of over 100 µM, a TGI [1] of over 100 µM and a TGI [55] of over 100 µM. The TGI [2] was over 100 µM, the TGI [3] was over 100 µM and the TGI [4] was over 100 µM. It also gave a TGI [5] of over 100 µM, a TGI [6] of over 100 µM and a TGI [7] of over 100 µM. It also gave a TGI [8] of over 100 µM, a TGI [9] of over 100 µM and a TGI [10] of over 100 µM. The TGI [11] was over 100 µM, the TGI [12] was over 100 µM and the TGI [14] was over 100 µM. The TGI [15] was over 100 µM, the TGI [16] was over 100 µM and the TGI [17] was over 100 µM. For the same compound, the TGI [18] was over 100 µM, the TGI [19] was over 100 µM and the TGI [20] was over 100 µM. It also gave a TGI [21] of over 100 µM, a TGI [22] of over 100 µM and a TGI [23] of over 100 µM. For the same compound, the TGI [24] was over 100 µM, the TGI [25] was over 100 µM and the TGI [26] was over 100 µM. The TGI [28] was over 100 µM, the TGI [30] was over 100 µM and the TGI [31] was over 100 µM. For the same compound, the TGI [32] was over 100 µM, the TGI [33] was over 100 µM and the TGI [34] was over 100 µM. It also gave a TGI [35] of over 100 µM, a TGI [36] of over 100 µM and a TGI [37] of over 100 µM. It also gave a TGI [39] of over 100 µM, a TGI [40] of over 100 µM and a TGI [41] of over 100 µM. It also gave a TGI [42] of over 100 µM, a TGI [43] of over 100 µM and a TGI [44] of over 100 µM. It also gave a TGI [45] of over 100 µM, a TGI [46] of over 100 µM and a TGI [47] of over 100 µM. The TGI [48] was over 100 µM, the TGI [49] was over 100 µM and the TGI [50] was over 100 µM. The TGI [51] was over 100 µM, the TGI [52] was over 100 µM and the TGI [56] was over 100 µM. For the same compound, the TGI [53] was over 100 µM.
